# Patent US5185366A, “Method for treatment and prevention of diseases caused by enveloped viruses, including herpes simplex virus types 1 and 2 diseases, using 3,4-dihydroxy-2H-benzopyran-2H-one” (Ohio State University Research Foundation, priority 1990, dated 1993)
# Where two headings read alike, the source gives them in different places.
# Key:
# [1] = Inhibition of cell growth (microscopic cell count); assay type: cell-based, Buffalo green monkey; conditions: monkey, bgm-70 cells, read-out: % Reduction of cell growth; for inhibition at 24 h, 0.4 µM / inhibition at 48 h, 0.4 µM: 0.4 μmol/L; for inhibition at 24 h, 1.6 µM / inhibition at 48 h, 1.6 µM: 1.6 μmol/L; for inhibition at 24 h, 2.5 µM / inhibition at 48 h, 2.5 µM: 2.5 μmol/L; for inhibition at 24 h, 10 µM / inhibition at 48 h, 10 µM: 10.0 μmol/L; for inhibition at 24 h, 50 µM / inhibition at 48 h, 50 µM: 50.0 μmol/L; for inhibition at 24 h, 100 µM / inhibition at 48 h, 100 µM: 100.0 μmol/L
# Method: a MASHII cell harvester and placed in a scintillation counter to determin
# incorporation of labelled compound and level of toxicity. BGM 70 cells ar
# seeded at a concentration of […] per well in a 24well tissue cultur
# plate. Cells are planted in 2 mL of growth medium with or without the tes
# compound and are incubated at 37° C. for 38 hours. At 24 hours
# medium is removed from onehalf of the plates and the cells are fixed and
# stained with crystal violet. The remaining cultures are fixed and stained
# ^b BGM 70 cells are counted microscopically and comparisons are made.
# Experiments are performed blindly by assigning each compound concentratio
# a letter code. The code is broken after the cells are counted.
# The effect of the compounds on the inhibition of cell growth is determined using BGM-70 cells grown in vitro. For this assay, BGM 70 cells are seeded at a concentration of approximately 70 cells per well in 24-well tissue culture plates. Cells are planted in 2 ml of growth medium with or without the test compound and are incubated at 37° C. for 48 hours. At 24 hours, cells from one half of the plates are fixed and stained with crystal violet. The remaining cultures are fixed and stained at 48 hours. Cells are counted microscopically and comparisons are made between non-treated (control) and treated cells.
# HSV-2 [2] = assay: Extracellular activity, inhibition of plaque forming units, HSV-2; conditions: for inhibition at 0.4 µM: Human alphaherpesvirus 2, read-out: % Inhibition of PFU, EA (extracellular activity), HSV-2, 0.4 μmol/L; for inhibition at 1.6 µM: Human alphaherpesvirus 2, read-out: % Inhibition of PFU, EA (extracellular activity), HSV-2, 1.6 μmol/L; for inhibition at 2.5 µM: Human alphaherpesvirus 2, read-out: % Inhibition of PFU, EA (extracellular activity), HSV-2, 2.5 μmol/L; for inhibition at 10 µM: Human alphaherpesvirus 2, read-out: % Inhibition of PFU, EA (extracellular activity), HSV-2, 10.0 μmol/L
# HSV-2 [3] = assay: Intracellular activity, inhibition of plaque forming units, HSV-2; assay type: cell-based, Herpes simplex virus type 2; conditions: for inhibition at 0.4 µM: Human alphaherpesvirus 2, HSV-2, 0.4 μmol/L; for inhibition at 1.6 µM: Human alphaherpesvirus 2, HSV-2, 1.6 μmol/L; for inhibition at 10 µM: Human alphaherpesvirus 2, HSV-2, 10.0 μmol/L
# [4] = system: Buffalo green monkey kidney (BGM 70) cells; assay: [3H]-thymidine uptake cytotoxicity; assay type: cell-based; conditions: for inhibition at 0.4 µM / inhibition at 1.6 µM / inhibition at 2.5 µM / inhibition at 10 µM: Chlorocebus sabaeus, read-out: % Inhibition of [3H]-Thymidine Incorporated; for inhibition at 0.4 µM: 0.4 μmol/L; for inhibition at 1.6 µM: 1.6 μmol/L; for inhibition at 2.5 µM: 2.5 μmol/L; for inhibition at 10 µM: 10.0 μmol/L
# viruses having no lipids = conditions: cited from earlier work
# enveloped viruses = conditions: cited from earlier work
# HSV = conditions: cited from earlier work; for extracellular inactivation of HSV: 0.5 mM
# HBV surface antigen = conditions: Pottage et al., cited from earlier work
# [5] = system: cellular protein synthesis; conditions: Pottage et al., cited from earlier work
# [6] = system: herpes simplex virus type 1 (HSV-1); conditions: cited from earlier work
# enveloped virus .phi. 6 = conditions: cited from earlier work
# [7] = system: human immunodeficiency virus (HIV); conditions: cited from earlier work
# [8] = read-out: % Inhibition of PFU, IA (intracellular activity)
# [9] = at concentrations of 10 μM or less
compound,measurement,setting,value
CC1(c2ccc(Cl)cc2)OC(=O)C(O)=C1O (racemic) [Compound 1],"inhibition at 24 h, 0.4 µM",[1],12 ± 4%
same,"inhibition at 24 h, 1.6 µM",[1],54 ± 8.6%
same,"inhibition at 24 h, 2.5 µM",[1],60 ± 9.1%
same,"inhibition at 48 h, 0.4 µM",[1],16 ± 3.6%
same,"inhibition at 48 h, 1.6 µM",[1],67 ± 12.1%
same,"inhibition at 48 h, 2.5 µM",[1],90 ± 4.6%
same,inhibition at 0.4 µM,HSV-2 [2],0%
same,inhibition at 1.6 µM,HSV-2 [2],1.5 ± 0.1%
same,inhibition at 0.4 µM,HSV-2 [3]; [8],0%
same,inhibition at 1.6 µM,HSV-2 [3]; [8],8 ± 2.4%
same,inhibition at 0.4 µM,[4]; 24 h,0%
same,inhibition at 1.6 µM,[4]; 24 h,16.7 ± 12.7%
same,inhibition at 2.5 µM,[4]; 24 h,66.7 ± 5.8%
same,inhibition at 10 µM,[4]; 24 h,95 ± 0.4%
same,inhibition at 0.4 µM,[4]; 48 h,0%
same,inhibition at 1.6 µM,[4]; 48 h,14.5 ± 15.5%
same,inhibition at 2.5 µM,[4]; 48 h,74.3 ± 9.3%
same,inhibition at 10 µM,[4]; 48 h,98.6 ± 0.5%
same,inhibition at 0.4 µM,[4]; 72 h,0%
same,inhibition at 1.6 µM,[4]; 72 h,39.9 ± 15.7%
same,inhibition at 2.5 µM,[4]; 72 h,53.9 ± 16.3%
same,inhibition at 10 µM,[4]; 72 h,98.2 ± 0.8%
same,toxicity ([3H]-thymidine uptake and/or cell growth),[4]; [9],display toxicity
"Cc1cc(C(C)(C)C)c(O)c(C(C)(C)C)c1 [BHT, butylated hydroxytoluene]",inactivation of viruses having no lipids,viruses having no lipids,comparatively insensitive
same,inactivation of viruses that contain lipids,enveloped viruses,readily inactivated
same,IC50,"HSV; Snipes et al., read-out: concentration causing 50% inactivation of HSV",70 to 160 µM
"O=C1OC2(CCCCC2)C(O)=C1O [Compound 4, 4-spiro-2-hydroxytetronic acid]","inhibition at 24 h, 0.4 µM",[1],6 ± 1.1%
same,"inhibition at 24 h, 1.6 µM",[1],21 ± 12%
same,"inhibition at 24 h, 2.5 µM",[1],37 ± 9.4%
same,"inhibition at 24 h, 10 µM",[1],88 ± 6.1%
same,"inhibition at 48 h, 0.4 µM",[1],8.4 ± 3.6%
same,"inhibition at 48 h, 1.6 µM",[1],22 ± 6.1%
same,"inhibition at 48 h, 2.5 µM",[1],59 ± 12.4%
same,"inhibition at 48 h, 10 µM",[1],86 ± 6.1%
same,inhibition at 0.4 µM,HSV-2 [2],2 ± 1%
same,inhibition at 1.6 µM,HSV-2 [2],1.8 ± 0.2%
same,toxicity ([3H]-thymidine uptake and/or cell growth),[4]; [9],display toxicity
O=c1oc2ccc(Cl)cc2c(O)c1O [Compound 6],"inhibition at 24 h, 0.4 µM",[1],21 ± 1%
same,"inhibition at 24 h, 1.6 µM",[1],20 ± 6.2%
same,"inhibition at 24 h, 2.5 µM",[1],56 ± 12%
same,"inhibition at 48 h, 0.4 µM",[1],12 ± 6.5%
same,"inhibition at 48 h, 1.6 µM",[1],30 ± 13.1%
same,"inhibition at 48 h, 2.5 µM",[1],58 ± 9.4%
same,inhibition at 0.4 µM,HSV-2 [2],1.5 ± 0.8%
same,inhibition at 1.6 µM,HSV-2 [2],1.2 ± 0.6%
same,inhibition at 2.5 µM,HSV-2 [2],0.4 ± 0.1%
same,inhibition at 0.4 µM,HSV-2 [3]; [8],3 ± 1.1%
same,inhibition at 1.6 µM,HSV-2 [3]; [8],10 ± 4.6%
same,inhibition at 0.4 µM,[4]; 24 h,11.1 ± 9.1%
same,inhibition at 1.6 µM,[4]; 24 h,31.1 ± 5.8%
same,inhibition at 2.5 µM,[4]; 24 h,17.8 ± 2%
same,inhibition at 10 µM,[4]; 24 h,90 ± 1.4%
same,inhibition at 0.4 µM,[4]; 48 h,16.7 ± 8.4%
same,inhibition at 1.6 µM,[4]; 48 h,46.8 ± 9%
same,inhibition at 2.5 µM,[4]; 48 h,20 ± 3.3%
same,inhibition at 10 µM,[4]; 48 h,99.2 ± 0.8%
same,inhibition at 0.4 µM,[4]; 72 h,31.8 ± 12%
same,inhibition at 1.6 µM,[4]; 72 h,41.4 ± 14%
same,inhibition at 2.5 µM,[4]; 72 h,17 ± 5%
same,inhibition at 10 µM,[4]; 72 h,99.2 ± 0.8%
same,toxicity ([3H]-thymidine uptake and/or cell growth),[4]; [9],display toxicity
O=c1oc2ccc(O)cc2c(O)c1O [Compound 7],"inhibition at 24 h, 0.4 µM",[1],14.2 ± 6.2%
same,"inhibition at 24 h, 2.5 µM",[1],0.4%
same,"inhibition at 24 h, 10 µM",[1],1.6 ± 0.2%
same,"inhibition at 24 h, 50 µM",[1],18.4 ± 6.1%
same,"inhibition at 24 h, 100 µM",[1],52 ± 8%
same,"inhibition at 48 h, 2.5 µM",[1],1 ± 0.4%
same,"inhibition at 48 h, 10 µM",[1],2 ± 1%
same,"inhibition at 48 h, 50 µM",[1],22.1 ± 8.4%
same,"inhibition at 48 h, 100 µM",[1],66 ± 11.1%
same,inhibition at 10 µM,HSV-2 [2],86 ± 0.5%
same,inhibition at 10 µM,HSV-2 [3]; [8],10 ± 3.2%
same,inhibition at 0.4 µM,[4]; 24 h,13.6 ± 6.1%
same,inhibition at 1.6 µM,[4]; 24 h,28.6 ± 12%
same,inhibition at 2.5 µM,[4]; 24 h,36.9 ± 8.6%
same,inhibition at 10 µM,[4]; 24 h,44.3 ± 9.1%
same,inhibition at 0.4 µM,[4]; 48 h,13.9 ± 6.1%
same,inhibition at 1.6 µM,[4]; 48 h,31.7 ± 8.4%
same,inhibition at 2.5 µM,[4]; 48 h,37.2 ± 5.1%
same,inhibition at 10 µM,[4]; 48 h,46.6 ± 8%
same,inhibition at 0.4 µM,[4]; 72 h,13.9 ± 6.1%
same,inhibition at 1.6 µM,[4]; 72 h,31.6 ± 8.4%
same,inhibition at 2.5 µM,[4]; 72 h,39.3 ± 13.1%
same,inhibition at 10 µM,[4]; 72 h,48.4 ± 14%
same,toxicity ([3H]-thymidine uptake and/or cell growth),[4]; [9],display toxicity
O=c1oc2cc3c(cc2c(O)c1O)OCO3 [Compound 8],"inhibition at 24 h, 2.5 µM",[1],2 ± 0.6%
same,"inhibition at 24 h, 10 µM",[1],6.6 ± 1%
same,"inhibition at 24 h, 50 µM",[1],54 ± 2%
same,"inhibition at 24 h, 100 µM",[1],68 ± 7.6%
same,"inhibition at 48 h, 2.5 µM",[1],4.2 ± 3.6%
same,"inhibition at 48 h, 10 µM",[1],8.1 ± 2.1%
same,"inhibition at 48 h, 50 µM",[1],52.2 ± 9.1%
same,"inhibition at 48 h, 100 µM",[1],71 ± 8.1%
same,inhibition at 2.5 µM,HSV-2 [2],3 ± 1%
same,inhibition at 10 µM,HSV-2 [2],16 ± 8%
same,inhibition at 2.5 µM,"HSV-2 [3]; Human alphaherpesvirus 2, HSV-2, 2.5 μmol/L, read-out: % Inhibition of PFU, IA (intracellular activity)",1 ± 0.2%
same,inhibition at 10 µM,HSV-2 [3]; [8],6.1 ± 1%
same,toxicity ([3H]-thymidine uptake and/or cell growth),[4]; at 10 μM,no toxicity
CC(=O)N1CCN(c2ccc(OCC3COC(Cn4ccnc4)(c4ccc(Cl)cc4Cl)O3)cc2)CC1 (centres unmarked) [Ketoconazole],inhibition in HBV surface antigen production,HBV surface antigen; 10 μg/mL,72%
same,HBV surface antigen production,HBV surface antigen,non-specifically inhibits HBV surface antigen production
same,reduction in protein synthesis,[5]; 10 μg/mL,38%
same,cellular protein synthesis,[5],decrease in cellular protein synthesis
"CCOC(=O)C(C)(C)Oc1ccc(Cl)cc1 [clofibrate, clofibric acid ethyl ester]",antiherpetic activity,HSV; Steinhart et al.,antiherpetic activity
"CC(C)(Oc1ccc(Cl)cc1)C(=O)O [clofibric acid, reference compound]","inhibition, extracellular treatment of HSV-2","HSV-2 [2]; 500 μM, P>0.05",no significant (P>0.05) inhibition
same,inhibition at 500 µM,"HSV-2 [3]; Human alphaherpesvirus 2, 500 μM, one experiment, n=3 wells, P<0.02, read-out: inhibition (PFU), virus-infected cells",66 ± 6%
same,anti-HSV-1 activity (inhibition),"[6]; 500 μM, Mehl",45%
same,inhibition of replication of HSV-1,[6]; BGM 70 cells,inhibit replication of herpes simplex virus type 1 (HSV-1)
CCCCCCCCCCO [decanol],extracellular inactivation of HSV,HSV,90-100%
CCCCCCCCCCCCO [dodecanol],extracellular inactivation of HSV,HSV,90-100%
CCCCC[C@@H](O)[C@H]1C(=O)O[C@H](C)[C@@H](O)/C=C/C=C/C=C/C=C/C=C(\C)[C@@H](O)C[C@H](O)C[C@H](O)C[C@H](O)C[C@H](O)C[C@H](O)C[C@@H]1O [filipin],inactivation of enveloped viruses,enveloped viruses,inactivates enveloped viruses
C/C(=C\CO)CCC[C@H](C)CCC[C@H](C)CCCC(C)C [phytol],concentration inhibiting enveloped virus .phi. 6,enveloped virus .phi. 6,10^-6 to 10^-4 mM
same,concentration inhibiting HSV,HSV,0.01 to 0.1 mM
CCCCCCCCCCCCCCO [tetradecanol],extracellular inactivation of HSV,HSV,90-100%
benzalkonium chloride,inactivation of HIV,[7],inactivate HIV
same,concentration destroying the infectiousness of HIV,[7]; general fluids of seropositive individuals,0.05%
nonoxynol-9,inactivation of HIV,[7],inactivate HIV
